From BindingDB's records for doi:10.1021/acs.jmedchem.5b00497 (Shandong University, 2016)

Experiment: Inhibition of human recombinant CCR5 encoding an HIV-1-longterminal-repeat-regulated beta-galactosidase reporter gene expressed in human HeLaP4 cells assessed as reduction of interaction with HIV-1 gp160 expressed in CHO cells by cell-cell fusion assay

An IC50 of 650 nM was found for Cc1nc2ccccc2n1C1CCN(CCC(c2ccccc2)c2ccccc2)CC1 in this work.
